Laboratory results published in US9732061B2, “Cinnoline derivatives useful as CB-1 receptor inverse agonists” (Janssen Pharmaceutica NV, priority 2015, dated 2017).

Assays:
[1] = molecular target: Human CB2R (Cannabanoid receptor 2) (Homo sapiens (Human), UniProt P34972); assay: CB-2 in vitro cAMP (HTRF) assay; format: cell-based; settings: HEK-293 cells stably transfected with human CB2R, 250 nM Forskolin, mean where tested more than once
Source text: (§1) CB1 and CB2 receptors are Gi-coupled GPCR. Activation of CB1 and CB2 receptors results in a decrease in cAMP production. An inverse agonist of the CB1 or CB2 receptor results in the opposite effect, an increase of cAMP production. The principle of this assay is based on HTRF® technology (Homogeneous Time-Resolved Fluorescence). The method is a competitive immunoassay between native cAMP produced by cells and the cAMP labeled with the fluorophore d2. The tracer binding is quantified by a Mab anti-cAMP labeled with Eu3+TBP-NHS Cryptate (supplied as part of the assay kit). The specific signal (i.e. energy transfer) is inversely proportional to the concentration of cAMP in the standard or sample.
(§2) Biological Example 1: CB-1 and CB-2 In Vitro Assay
(§3) Human CB1R (Cannabanoid receptor 1) was stably transfected in HEK-293 cells (DiscoveRx, cat: 93-0200C1). Human CB2R (Cannabanoid receptor 2) was stably transfected in HEK-293 cells (DiscoveRx, cat: 93-0201C1). Cell cultures were maintained in media: DMEM (Invitrogen Cat#12430-054) supplemented with 10% HI FBS (Invitrogen Cat#16140-071), 1% L-glutamine (Invitrogen Cat#25030-081), 0.2 mg/ml Hygromycin B (Invitrogen Cat#10687-010), 600 μg/mL G418 (Invitrogen Cat#10131-035), and 1×Penn/Strep (Invitrogen 15140-122). After cell expansion, aliquots were cryo-stored in media containing 5% DMSO (Pierce Cat#20684).
(§4) One day prior to experiments media was warmed to 37° C. and the cryo-stored cells were thawed in a 37° C. water bath. The cells were then added to media (10× volume) and the mixture was centrifugated at 1000 RPM for 5 min. The supernate was removed and the cells were re-suspended in media. A sample of the cell suspension was evaluated on a Cedex XS automated cell counter (Innovatis Systems) to determine viable cells/ml. Additional media was added to the cells to achieve a final cell density of 4E5 cells/mL. The cells were then plated into 384 well PDL white solid bottom plates (Greiner, Cat#781945) at 20 μL per well using a Multidrop (Thermo Scientific). Cells were removed from Row P (location of cAMP standards). Two columns of cells were plated into a clear bottom 384 well PDL coated plate (Greiner, Cat#781944) to view confluence the day of the assay. The cell plates were lidded and stored for 15 minutes in a hood, then transferred to an incubator (37° C., 5% CO2, 95% humidity) overnight.
(§5) DMSO was added to all wells of 384 well V bottom polystyrene plate (Greiner, Cat#781280) except to columns 1 and 13, rows O and P and wells M13-M23 and N13-N23. Test compounds (60 μL, 10 mM) were added to Column 1 and 13 (A1 through N1 and A13 through L13). Test compounds were serially diluted 1/3 by transferring and mixing 20 μl sample with 40 μL DMSO.
(§6) DMSO (40 μL) was added to wells of 384 well V bottom polystyrene plate: O2 through O11, M14 through M23, N14 through N23, and O14 through O23. AM630 (also known as [6-iodo-2-methyl-1-[2-(4-morpholinyl)ethyl]-1H-indol-3-yl](4-methoxyphenyl)-methanone, Cayman Chemical, Cat#10006974) (60 μL, 10 mM) was added to O1; and 1-(2,4-dichlorophenyl)-7-[(4-fluorophenyl)methylene]-4,5,6,7-tetrahydro-N-1-piperidinyl-1H-indazole-3-carboxamide (60 μL, 10 mM) was added to N13. The control was serially diluted 1/3 by transferring and mixing 20 μl sample with 40 μL DMSO. This process resulted 11 doses per control, 10 mM to […].
(§7) Cells plated the day prior to the assay in clear bottom plates were viewed on an inverse microscope to ensure confluency in the range of 60-75%. […]

[2] = molecular target: Human CB1R (Cannabanoid receptor 1) (Homo sapiens (Human), UniProt P21554); assay: CB-1 in vitro cAMP (HTRF) assay; format: cell-based; settings: HEK-293 cells stably transfected with human CB1R, 250 nM Forskolin, mean where tested more than once
Source text: as §1, §2, §3, §4, §5, §6, §7

Human CB1R (Cannabanoid receptor 1), sequence (P21554 whole entry): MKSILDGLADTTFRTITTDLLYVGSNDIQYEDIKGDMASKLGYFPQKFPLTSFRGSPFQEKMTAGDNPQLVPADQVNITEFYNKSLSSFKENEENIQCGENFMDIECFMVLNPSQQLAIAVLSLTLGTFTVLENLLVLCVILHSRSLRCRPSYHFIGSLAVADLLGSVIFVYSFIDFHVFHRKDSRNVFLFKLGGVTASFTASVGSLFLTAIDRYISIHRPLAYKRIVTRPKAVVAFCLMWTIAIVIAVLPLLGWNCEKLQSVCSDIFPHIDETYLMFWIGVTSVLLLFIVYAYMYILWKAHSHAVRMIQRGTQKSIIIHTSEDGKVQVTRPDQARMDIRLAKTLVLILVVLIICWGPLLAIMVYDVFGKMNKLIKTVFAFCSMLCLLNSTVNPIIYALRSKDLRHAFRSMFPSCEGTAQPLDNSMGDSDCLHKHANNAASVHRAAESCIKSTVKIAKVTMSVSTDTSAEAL
Human CB2R (Cannabanoid receptor 2), sequence (P34972 whole entry): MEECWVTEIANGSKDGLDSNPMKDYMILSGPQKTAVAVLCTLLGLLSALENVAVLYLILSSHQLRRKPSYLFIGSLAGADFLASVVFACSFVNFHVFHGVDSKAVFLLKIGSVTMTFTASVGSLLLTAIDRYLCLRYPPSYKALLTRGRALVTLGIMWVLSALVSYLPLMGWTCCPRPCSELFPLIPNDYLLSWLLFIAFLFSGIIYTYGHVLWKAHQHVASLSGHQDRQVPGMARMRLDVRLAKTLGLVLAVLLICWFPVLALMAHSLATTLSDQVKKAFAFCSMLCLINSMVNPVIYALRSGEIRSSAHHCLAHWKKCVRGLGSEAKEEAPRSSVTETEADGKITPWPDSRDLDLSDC

EC50 [1] [nM] | EC50 [2] [nM] | SMILES
> 10000 | 1440 | O=C(O)c1ccc(CN2CCC(Nc3cnnc4ccc(C(c5ccc(Cl)cc5)c5ccc(Cl)cc5)cc34)CC2)cc1 [Compound 13, 4-((4-(6-(bis(4-chlorophenyl)methyl)cinnolin-4-ylamino)piperidin-1-yl)methyl)benzoic acid]
> 10000 | 12 | FC(F)(F)c1cccc(CNc2cnnc3ccc(C(c4ccc(Cl)cc4)c4ccc(Cl)cc4)cc23)c1 [Compound 8, 6-(bis(4-chlorophenyl)methyl)-N-(3-(trifluoromethyl)benzyl)cinnolin-4-amine]
> 10000 | 35 | O=S(=O)(c1ccccc1)N1CCC(Nc2cnnc3ccc(C(c4ccc(Cl)cc4)c4ccc(Cl)cc4)cc23)CC1 [Compound 4, 6-(bis(4-chlorophenyl)methyl)-N-(1-(phenylsulfonyl)piperidin-4-yl)cinnolin-4-amine]
849 | 272 | O=S(=O)(c1ccccc1)N1CCC(Nc2cnnc3ccc(C(c4ccc(Cl)cc4)c4ccc(Cl)cc4)cc23)C1 (stereo not drawn) [Compound 27, 6-(bis(4-chlorophenyl)methyl)-N-(1-(phenylsulfonyl)pyrrolidin-3-yl)cinnolin-4-amine]
> 10000 | 643 | Clc1ccc(C(c2ccc(Cl)cc2)c2ccc3nncc(NC4CCN(CCc5ccccc5)CC4)c3c2)cc1 [Compound 30, 6-(bis(4-chlorophenyl)methyl)-N-(1-phenethylpiperidin-4-yl)cinnolin-4-amine]
2460 | 35 | Clc1ccc(C(c2ccc(Cl)cc2)c2ccc3nncc(NCCc4ccccc4)c3c2)cc1 [Compound 25, 6-(bis(4-chlorophenyl)methyl)-N-phenethylcinnolin-4-amine]
3690 | 399 | O=C(O)c1ccc(CN2CCC(Nc3cnnc4ccc(C(c5ccc(Cl)cc5)c5ccc(Cl)cc5)cc34)CC2)s1 [Compound 15, 5-((4-(6-(bis(4-chlorophenyl)methyl)cinnolin-4-ylamino)piperidin-1-yl)methyl)thiophene-2-carboxylic acid]
3580 | 196 | COc1ccc(CNc2cnnc3ccc(C(c4ccc(Cl)cc4)c4ccc(Cl)cc4)cc23)cc1 [Compound 20, 6-(bis(4-chlorophenyl)methyl)-N-(4-methoxybenzyl)cinnolin-4-amine]
5250 | 181 | O=C(O)c1cccc(S(=O)(=O)N2CCC(Nc3cnnc4ccc(C(c5ccc(Cl)cc5)c5ccc(Cl)cc5)cc34)CC2)c1 [Compound 11, 3-(4-(6-(bis(4-chlorophenyl)methyl)cinnolin-4-ylamino)piperidin-1-ylsulfonyl)benzoic acid]
> 10000 | 219 | OC(c1ccc(Cl)cc1)(c1ccc(Cl)cc1)c1ccc2nncc(NCc3ccc(C(F)(F)F)cc3)c2c1 [Compound 7, bis(4-chlorophenyl)(4-((4-(trifluoromethyl)benzyl)amino)cinnolin-6-yl)methanol]
> 10000 | 6540 | Clc1ccc(C(c2ccc(Cl)cc2)c2ccc3nncc(N4CCN(Cc5ccccc5)CC4)c3c2)cc1 [Compound 22, 4-(4-benzylpiperazin-1-yl)-6-(bis(4-chlorophenyl)methyl)cinnoline]
> 10000 | 6640 | O=C(O)c1ccc(CCN2CCC(Nc3cnnc4ccc(C(c5ccc(Cl)cc5)c5ccc(Cl)cc5)cc34)CC2)cc1 [Compound 31, 4-(2-(4-(6-(bis(4-chlorophenyl)methyl)cinnolin-4-ylamino)piperidin-1-yl)ethyl)benzoic acid]
1930 | 95 | O=S(=O)(N1CCC(Nc2cnnc3ccc(C(c4ccc(Cl)cc4)c4ccc(Cl)cc4)cc23)C1)C(F)(F)F (stereo not drawn) [Compound 26, 6-(bis(4-chlorophenyl)methyl)-N-(1-(trifluoromethylsulfonyl)pyrrolidin-3-yl)cinnolin-4-amine]
3980 | 4500 | O=C(O)c1cccc(CCNc2cnnc3ccc(C(c4ccc(Cl)cc4)c4ccc(Cl)cc4)cc23)c1 [Compound 38, 3-(2-(6-(bis(4-chlorophenyl)methyl)cinnolin-4-ylamino)ethyl)benzoic acid]

SMILES | EC50 [1] [nM] | EC50 [2] [nM]
Clc1ccc(C(c2ccc(Cl)cc2)c2ccc3nncc(N4CCC(Nc5ccccc5)CC4)c3c2)cc1 [Compound 29, 1-[6-[bis(4-chlorophenyl)methyl]cinnolin-4-yl]-N-phenylpiperidin-4-amine] | > 10000 | 99
